Patent US20260297080A1, “BICYCLIC COMPOUNDS AS CDK INHIBITORS” (BeOne Medicines I GmbH, priority 2022, published 2026)

Assays:
CDK1/Cyclin B1 = CDK1/Cyclin B1 (Homo sapiens, UniProt P06493); assay: CDK1/Cyclin B1 Biochemical Assay (TR-FRET), 0.015 mM ATP; conditions: 0.15 μM Rb (Ser780)-biotin substrate, pH7.0, 60 min preincubation, 120 min reaction, room temperature
Method in brief: (§1)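 Phosphorylation of a biotin-tagged Rb Ser780 peptide (0.15 μM) is measured by time-resolved FRET between a europium-labelled phospho-specific antibody and streptavidin-XL665. Compound (0–10 μM) sits with enzyme 60 min first; the kinase reaction then proceeds 120 min at room temperature, pH 7.0.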

CDK2/Cyclin E1 = CDK2/Cyclin E1 (Homo sapiens, UniProt P24941); assay: CDK2/Cyclin E1 Biochemical Assay (TR-FRET), 0.060 mM ATP; conditions: 0.15 μM Rb (Ser780)-biotin substrate, pH7.0, 60 min preincubation, 120 min reaction, room temperature
Method in brief: as §1

Chain of CDK1/Cyclin B1 (P06493 whole entry): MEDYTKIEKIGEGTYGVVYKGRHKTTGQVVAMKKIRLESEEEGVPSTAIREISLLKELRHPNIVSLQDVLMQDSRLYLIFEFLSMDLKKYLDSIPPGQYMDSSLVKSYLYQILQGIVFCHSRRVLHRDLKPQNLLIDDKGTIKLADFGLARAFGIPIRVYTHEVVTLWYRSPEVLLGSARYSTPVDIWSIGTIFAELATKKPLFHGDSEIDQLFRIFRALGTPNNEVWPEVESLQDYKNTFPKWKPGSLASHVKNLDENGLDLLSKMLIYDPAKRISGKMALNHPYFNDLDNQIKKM
Chain of CDK1/Cyclin B1 (P14635 whole entry partner): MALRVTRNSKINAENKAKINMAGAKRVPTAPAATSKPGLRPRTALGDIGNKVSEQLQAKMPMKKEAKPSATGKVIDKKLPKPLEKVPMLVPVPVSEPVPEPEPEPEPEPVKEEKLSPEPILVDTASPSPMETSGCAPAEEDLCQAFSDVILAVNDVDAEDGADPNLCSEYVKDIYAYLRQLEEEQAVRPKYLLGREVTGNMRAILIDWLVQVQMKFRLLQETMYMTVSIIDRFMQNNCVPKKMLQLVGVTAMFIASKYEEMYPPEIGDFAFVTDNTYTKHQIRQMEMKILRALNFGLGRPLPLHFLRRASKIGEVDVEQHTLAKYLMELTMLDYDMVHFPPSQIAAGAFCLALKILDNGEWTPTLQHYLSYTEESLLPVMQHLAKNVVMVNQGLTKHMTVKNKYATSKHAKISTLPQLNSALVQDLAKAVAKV

Compound | IC50 (CDK1/Cyclin B1) [nM] | IC50 (CDK2/Cyclin E1) [nM]
CC(C)NC(=O)O[C@H]1CC[C@@H](c2cc(Nc3cc(F)c4c(c3)CS(=O)(=O)N4C)n[nH]2)C1 (relative stereo) [Example 280, cis-3-(3-((7-fluoro-1-methyl-2,2-dioxido-1,3-dihydrobenzo[c]isothiazol-5-yl)amino)-1H-pyrazol-5-yl)cyclopentyl isopropylcarbamate] | 149 | 10
Cc1cc2c(cc1Nc1cc([C@@H]3CC[C@H](OC(=O)NC(C)C)C3)[nH]n1)CS(=O)(=O)N2C (relative stereo) [Example 244, cis-3-(3-((1,6-dimethyl-2,2-dioxido-1,3-dihydrobenzo[c]isothiazol-5-yl)amino)-1H-pyrazol-5-yl)cyclopentyl isopropylcarbamate] | 7260 | 1060
Cc1cc2c(cc1Nc1cc([C@@H]3CC[C@H](OC(=O)NC(C)C)C3)[nH]n1)S(=O)(=O)NC2 (relative stereo) [Example 185, cis-3-(3-((5-methyl-1,1-dioxido-2,3-dihydrobenzo[d]isothiazol-6-yl)amino)-1H-pyrazol-5-yl)cyclopentyl isopropylcarbamate] | 1420 | 239
CC[C@H](C)NC(=O)O[C@H]1C[C@@H](c2cc(Nc3cc4c(cc3F)S(=O)(=O)NC4)n[nH]2)C1 [Example 410, (1s,3R)-3-(3-((6-fluoro-1,1-dioxido-2,3-dihydrobenzo[d]isothiazol-5-yl)amino)-1H-pyrazol-5-yl)cyclobutyl((S)-sec-butyl)carbamate] | 884 | 27
CC(C)NC(=O)O[C@H]1CC[C@@H](c2cc(Nc3ccc4c(c3)C(=O)NS4(=O)=O)n[nH]2)C1 (relative stereo) [Example 17, cis-3-(3-((1,1-dioxido-3-oxo-2,3-dihydrobenzo[d]isothiazol-5-yl)amino)-1H-pyrazol-5-yl)cyclopentyl isopropylcarbamate] | 470 | 11.8
CC[C@H](C)NC(=O)O[C@H]1CC[C@@H](c2cc(Nc3ccc4c(c3F)CS(=O)(=O)N4CC(F)(F)F)n[nH]2)C1 (single isomer, unassigned) [Example 265a] | 41 | 1.6
CC(C)NC(=O)O[C@H]1CC[C@@H](c2cc(Nc3ccc4c(c3)CCNS4(=O)=O)n[nH]2)C1 (relative stereo) [Example 172, cis-3-(3-((1,1-dioxido-3,4-dihydro-2H-benzo[e][1,2]thiazin-6-yl)amino)-1H-pyrazol-5-yl)cyclopentyl isopropylcarbamate] | 14 | 0.7
CC(C)NC(=O)O[C@H]1CC[C@@H](c2cc(Nc3ccc4c(c3F)S(=O)(=O)NC4(C)C)n[nH]2)C1 (relative stereo) [Example 13, cis-3-(3-((7-fluoro-3,3-dimethyl-1,1-dioxido-2,3-dihydrobenzo[d]isothiazol-6-yl)amino)-1H-pyrazol-5-yl)cyclopentyl isopropylcarbamate] | 563 | 21
Cc1cc(Nc2cc([C@@H]3CC[C@H](OC(=O)NC(C)C)C3)[nH]n2)cc2c1S(=O)(=O)NC2 (relative stereo) [Example 26, cis-3-(3-((7-methyl-1,1-dioxido-2,3-dihydrobenzo[d]isothiazol-5-yl)amino)-1H-pyrazol-5-yl)cyclopentyl isopropylcarbamate] | 60 | 2
CC1(NC(=O)O[C@H]2CC[C@@H](c3cc(Nc4ccc5c(c4)CNS5(=O)=O)n[nH]3)C2)CC1 (relative stereo) [Example 177, cis-3-(3-((1,1-dioxido-2,3-dihydrobenzo[d]isothiazol-5-yl)amino)-1H-pyrazol-5-yl)cyclopentyl(1-methylcyclopropyl)carbamate] | 27 | 1.1

The remaining lines, values ahead:

IC50 (CDK1/Cyclin B1) [nM] | IC50 (CDK2/Cyclin E1) [nM] | Compound
328 | 8.1 | CC(C)NC(=O)O[C@H]1CC[C@@H](c2cc(Nc3ccc4c(c3F)S(=O)(=O)N(C)C4)n[nH]2)C1 (relative stereo) [Example 190, cis-3-(3-((7-fluoro-2-methyl-1,1-dioxido-2,3-dihydrobenzo[d]isothiazol-6-yl)amino)-1H-pyrazol-5-yl)cyclopentyl isopropylcarbamate]
153 | 2.7 | CC1NS(=O)(=O)c2ccc(Nc3cc([C@@H]4CC[C@H](OC(=O)NC5(C)CC5)C4)[nH]n3)c(F)c21 (single isomer, unassigned) [Example 52b, cis-3-(3-((4-fluoro-3-methyl-1,1-dioxido-2,3-dihydrobenzo[d]isothiazol-5-yl)amino)-1H-pyrazol-5-yl)cyclopentyl(1-methylcyclopropyl)carbamate]
74 | 1.1 | CC(C)NC(=O)O[C@@H]1CC[C@H](c2cc(Nc3ccc4c(c3F)CS(=O)(=O)N4)n[nH]2)C1 (single isomer, unassigned) [Example 251a]
192 | 2.7 | CC1(NC(=O)O[C@H]2CC[C@@H](c3cc(Nc4ccc5c(c4F)CN(CCO)S5(=O)=O)n[nH]3)C2)CC1 (single isomer, unassigned) [Example 128a, cis-3-(3-((4-fluoro-2-(2-hydroxyethyl)-1,1-dioxido-2,3-dihydrobenzo[d]isothiazol-5-yl)amino)-1H-pyrazol-5-yl)cyclopentyl(1-methylcyclopropyl)carbamate]
647 | 9.5 | CC(C)NC(=O)O[C@H]1CC[C@@H](c2cc(Nc3ccc4c(c3F)CN(C3CCOC3)S4(=O)=O)n[nH]2)C1 (relative stereo) [Example 69, cis-3-(3-((4-fluoro-1,1-dioxido-2-(tetrahydrofuran-3-yl)-2,3-dihydrobenzo[d]isothiazol-5-yl)amino)-1H-pyrazol-5-yl)cyclopentyl isopropylcarbamate]
564 | 2.7 | CC[C@H](C)NC(=O)O[C@H]1CC[C@@H](c2cc(Nc3ccc4c(c3F)C(C)NS4(=O)=O)n[nH]2)C1 (single isomer, unassigned) [Example 54b]
1730 | 64 | CC(C)NC(=O)O[C@H]1CC[C@@H](c2cc(Nc3ccc4c(c3CO)CNS4(=O)=O)n[nH]2)C1 (relative stereo) [Example 345, cis-3-(3-((4-(hydroxymethyl)-1,1-dioxido-2,3-dihydrobenzo[d]isothiazol-5-yl)amino)-1H-pyrazol-5-yl)cyclopentyl isopropylcarbamate]
621 | 10 | CC(C)NC(=O)O[C@H]1CC[C@@H](c2cc(Nc3ccc4c(c3F)CN(C3CCN(S(C)(=O)=O)CC3)S4(=O)=O)n[nH]2)C1 (relative stereo) [Example 77, cis-3-(3-((4-fluoro-2-(1-(methylsulfonyl)piperidin-4-yl)-1,1-dioxido-2,3-dihydrobenzo[d]isothiazol-5-yl)amino)-1H-pyrazol-5-yl)cyclopentyl isopropylcarbamate]
358 | 12 | O=C(NC1(CO)CC1)O[C@H]1CC[C@@H](c2cc(Nc3ccc4c(c3F)CN(C3CC3)S4(=O)=O)n[nH]2)C1 (relative stereo) [Example 360, cis-3-(3-((2-cyclopropyl-4-fluoro-1,1-dioxido-2,3-dihydrobenzo[d]isothiazol-5-yl)amino)-1H-pyrazol-5-yl)cyclopentyl(1-(hydroxymethyl)cyclopropyl)carbamate]
367 | 1.9 | CN1c2ccc(Nc3cc([C@@H]4CC[C@H](OC(=O)NC5(C)COC5)C4)[nH]n3)c(F)c2CS1(=O)=O (single isomer, unassigned) [Example 332a, cis-3-(3-((4-fluoro-1-methyl-2,2-dioxido-1,3-dihydrobenzo[c]isothiazol-5-yl)amino)-1H-pyrazol-5-yl)cyclopentyl(3-methyloxetan-3-yl)carbamate]
407 | 6 | CC(C)NC(=O)O[C@H]1CC[C@@H](c2cc(Nc3ccc4c(c3F)CN(C(C)C3CCOC3)S4(=O)=O)n[nH]2)C1 (relative stereo) [Example 115, cis-3-(3-((4-fluoro-1,1-dioxido-2-(1-(tetrahydrofuran-3-yl)ethyl)-2,3-dihydrobenzo[d]isothiazol-5-yl)amino)-1H-pyrazol-5-yl)cyclopentyl isopropylcarbamate]
157 | 3 | CC(C)NC(=O)O[C@H]1CC[C@@H](c2cc(Nc3ccc4c(c3F)CS(=O)(=O)N4C3COC3)n[nH]2)C1 (single isomer, unassigned) [Example 259b, cis-3-(3-((4-fluoro-1-(oxetan-3-yl)-2,2-dioxido-1,3-dihydrobenzo[c]isothiazol-5-yl)amino)-1H-pyrazol-5-yl)cyclopentyl isopropylcarbamate]
488 | 3.8 | CC[C@H](C)NC(=O)O[C@H]1CC[C@@H](c2cc(Nc3ccc4c(c3F)CN(C3COC3)S4(=O)=O)n[nH]2)C1 (single isomer, unassigned) [Example 134a]
110 | 3.2 | CCCNC(=O)O[C@H]1CC[C@@H](c2cc(Nc3ccc4c(c3F)CS(=O)(=O)N4C3COC3)n[nH]2)C1 (racemic) [Example 260, cis-3-(3-((4-fluoro-1-(oxetan-3-yl)-2,2-dioxido-1,3-dihydrobenzo[c]isothiazol-5-yl)amino)-1H-pyrazol-5-yl)cyclopentyl propylcarbamate]
1100 | 35 | O=C(NC1(CO)CCC1)O[C@H]1CC[C@@H](c2cc(Nc3cc4c(cc3F)NS(=O)(=O)C4)n[nH]2)C1 (relative stereo) [Example 408, cis-3-(3-((6-fluoro-2,2-dioxido-1,3-dihydrobenzo[c]isothiazol-5-yl)amino)-1H-pyrazol-5-yl)cyclopentyl(1-(hydroxymethyl)cyclobutyl)carbamate]
